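Cultured in 96-well plates, cells were exposed to test compound for 48 hours across five concentrations. TGI marks complete inhibition of growth.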
What was measured:
Test in all cases: DTP human tumour cell line panel, 48 h
786-0 renal = tested on: 786-0 renal
A498 renal = tested on: A498 renal
A549 NSCLC = tested on: A549 NSCLC
ACHN renal = tested on: ACHN renal
BT-549 breast = tested on: BT-549 breast
CAKI-1 renal = tested on: CAKI-1 renal
CCRF-CEM leukemia = tested on: CCRF-CEM leukemia
COLO 205 colon = tested on: COLO 205 colon
DU-145 prostate = tested on: DU-145 prostate
EKVX NSCLC = tested on: EKVX NSCLC
HCC-2998 colon = tested on: HCC-2998 colon
HCT-116 colon = tested on: HCT-116 colon
HCT-15 colon = tested on: HCT-15 colon
HL-60(TB) leukemia = tested on: HL-60(TB) leukemia
HOP-62 NSCLC = tested on: HOP-62 NSCLC
HS 578T breast = tested on: HS 578T breast
HT29 colon = tested on: HT29 colon
IGROV1 ovarian = tested on: IGROV1 ovarian
K-562 leukemia = tested on: K-562 leukemia
KM12 colon = tested on: KM12 colon
LOX IMVI melanoma = tested on: LOX IMVI melanoma
M14 melanoma = tested on: M14 melanoma
MALME-3M melanoma = tested on: MALME-3M melanoma
MCF7 breast = tested on: MCF7 breast
MDA-MB-231 breast = tested on: MDA-MB-231 breast
MDA-MB-435 = tested on: MDA-MB-435
MDA-N = tested on: MDA-N
MOLT-4 leukemia = tested on: MOLT-4 leukemia
NCI-H226 lung = tested on: NCI-H226 lung
NCI-H23 lung = tested on: NCI-H23 lung
NCI-H460 lung = tested on: NCI-H460 lung
NCI-H522 lung = tested on: NCI-H522 lung
OVCAR-3 ovarian = tested on: OVCAR-3 ovarian
OVCAR-5 ovarian = tested on: OVCAR-5 ovarian
OVCAR-8 ovarian = tested on: OVCAR-8 ovarian
PC-3 prostate = tested on: PC-3 prostate
RPMI-8226 leukemia = tested on: RPMI-8226 leukemia
RXF 393 renal = tested on: RXF 393 renal
SF-268 CNS = tested on: SF-268 CNS
SF-295 CNS = tested on: SF-295 CNS
SF-539 CNS = tested on: SF-539 CNS
SK-MEL-2 melanoma = tested on: SK-MEL-2 melanoma
SK-MEL-28 melanoma = tested on: SK-MEL-28 melanoma
SK-MEL-5 melanoma = tested on: SK-MEL-5 melanoma
SK-OV-3 ovarian = tested on: SK-OV-3 ovarian
SN12C renal = tested on: SN12C renal
SNB-19 CNS = tested on: SNB-19 CNS
SNB-75 CNS = tested on: SNB-75 CNS
SR leukemia = tested on: SR leukemia
SW-620 colon = tested on: SW-620 colon
T-47D breast = tested on: T-47D breast
TK-10 renal = tested on: TK-10 renal
U251 CNS = tested on: U251 CNS
UACC-257 melanoma = tested on: UACC-257 melanoma
UACC-62 melanoma = tested on: UACC-62 melanoma
UO-31 renal = tested on: UO-31 renal

SMILES: COc1cccc(C2c3cc4c(cc3OC(NNc3ccccc3)C2C)OCO4)c1OC (stereo unspecified)
- TGI (786-0 renal): > 100 µM
- TGI (A498 renal): 88.1 µM
- TGI (A549 NSCLC): > 100 µM
- TGI (ACHN renal): > 100 µM
- TGI (BT-549 breast): 67.2 µM
- TGI (CAKI-1 renal): > 100 µM
- TGI (CCRF-CEM leukemia): 31.6 µM
- TGI (COLO 205 colon): 15.7 µM
- TGI (DU-145 prostate): 68.7 µM
- TGI (EKVX NSCLC): 32.3 µM
- TGI (HCC-2998 colon): 6.79 µM
- TGI (HCT-116 colon): 23.4 µM
- TGI (HCT-15 colon): > 100 µM
- TGI (HL-60(TB) leukemia): 17 µM
- TGI (HOP-62 NSCLC): > 100 µM
- TGI (HS 578T breast): 80.1 µM
- TGI (HT29 colon): 58.2 µM
- TGI (IGROV1 ovarian): > 100 µM
- TGI (K-562 leukemia): 9.05 µM
- TGI (KM12 colon): > 100 µM
- TGI (LOX IMVI melanoma): > 100 µM
- TGI (M14 melanoma): > 100 µM
- TGI (MALME-3M melanoma): 70.7 µM
- TGI (MCF7 breast): 76.2 µM
- TGI (MDA-MB-231 breast): > 100 µM
- TGI (MDA-MB-435): > 100 µM
- TGI (MDA-N): > 100 µM
- TGI (MOLT-4 leukemia): 53.3 µM
- TGI (NCI-H226 lung): 74.4 µM
- TGI (NCI-H23 lung): 96.9 µM
- TGI (NCI-H460 lung): > 100 µM
- TGI (NCI-H522 lung): > 100 µM
- TGI (OVCAR-3 ovarian): 24 µM
- TGI (OVCAR-5 ovarian): > 100 µM
- TGI (OVCAR-8 ovarian): > 100 µM
- TGI (PC-3 prostate): 46.6 µM
- TGI (RPMI-8226 leukemia): > 100 µM
- TGI (RXF 393 renal): 44.1 µM
- TGI (SF-268 CNS): > 100 µM
- TGI (SF-295 CNS): 4.24 µM
- TGI (SF-539 CNS): 84.2 µM
- TGI (SK-MEL-2 melanoma): > 100 µM
- TGI (SK-MEL-28 melanoma): > 100 µM
- TGI (SK-MEL-5 melanoma): > 100 µM
- TGI (SK-OV-3 ovarian): > 100 µM
- TGI (SN12C renal): > 100 µM
- TGI (SNB-19 CNS): > 100 µM
- TGI (SNB-75 CNS): > 100 µM
- TGI (SR leukemia): 18.8 µM
- TGI (SW-620 colon): > 100 µM
- TGI (T-47D breast): > 100 µM
- TGI (TK-10 renal): 25.1 µM
- TGI (U251 CNS): > 100 µM
- TGI (UACC-257 melanoma): 71.5 µM
- TGI (UACC-62 melanoma): > 100 µM
- TGI (UO-31 renal): > 100 µM
